This is an account of results in patent publication US4691024A, “New mitomycin derivatives, preparation thereof and pharmaceutical compositions containing them” (priority 1984, dated 1987).

In brackets after ≈: the same amount, converted by molar mass.

One data set has as its system Bacillus subtilis 10707. The data set is described as follows: Antibacterial activity, minimum growth inhibitory concentration by agar dilution method (BS). The settings on record: Bacillus subtilis, 10707, pH 7, read-out: MIC, Bacillus subtilis (BS). The data set is classed as cell-based. How it is done: (§1) The various compounds of formula (I) of Examples 1-26 were tested for antibacterial activity against 6 microorganisms. […]. In this table, the following symbols are used:
BS: Bacillus subtilis 10707
(In general: In agar dilution, organisms are placed on agar that contains the substance at set levels.)

The subject of data set [1] is Klebsiella pneumoniae ATCC 10031. The data set is described as follows: microbe, parasite or virus in culture. It is filed as cell-based. Particulars: ATCC10031, pH 7, read-out: MIC, Klebsiella pneumoniae (KP). The source says:
In this table, the following symbols are used:
KP: Klebsiella pneumoniae ATCC 10031

The nature of data set [2]: Solubility in 0.03M phosphate buffered solution. The data set is classed as physicochemical. The settings on record: 0.03m phosphate buffer, aqueous buffer, pH 7.0, 23° C. As for the experimental part:
The solubilities of Compound 5, Compound 14 and Compound 20 in 0.03M phosphate buffered solution (pH 7.0, 23° C.) were determined.

Another data set relates to Sarcoma 180 solid tumour. The data set is described as follows: Anti-tumour activity against Sarcoma 180 solid tumour in mice. It is filed as in vivo. Particulars: Mus musculus, sc, 168 h; Sarcoma 180 s.c. in ddy mice; into tail vein 24 hours after implantation; volume at 7 days; read-out: ED50 (dose reducing tumour volume to 50% of control). As for the experimental part: (§2) The antitumour-activity and toxicity of various compounds of formula (I) were investigated as indicated below.
(1) Effect against Sarcoma 180 solid tumour cells
5×10^6 cells of Sarcoma 180 solid tumour were intraperitoneally implanted into ddy mice. 7 days later, ascites cells were sampled. The cells were washed once with a sterilized physiological solution of sodium chloride and were used to prepare a cell suspension containing 5×10^7 cells per ml. On each occasion, 0.1 ml of the cell suspension was subcutaneously implanted into the right arm pit of a male mouse (ddy strain; body weight 20±2 g). The test compound was dissolved in a physiological solution of sodium chloride with or without addition of Tween 80 and was administered into the tail vein of each mouse of a group consisting of 5 mice at a dose of 0.1-0.2 ml, 24 hours after the implantation of the tumour cells.
The anti-tumour activity was determined in the following manner. 7 days after the implantation, the major axis (a) and the minor axis (b) of the tumour were measured to calculate a value of "a×b^2 /2" which corresponds to the volume of the tumour. The anti-tumour activity was expressed by the ratio of the volume of the tumours (T) of the group of animals administered with the test compound to the corresponding volume of tumours (c) of the untreated animals.
(2) Determination of ED50
(The amount needed for reducing the volume of Sarcoma 180 solid tumours in mice to 50% on the basis of the corresponding volume of Sarcoma solid tumours in control untreated animals). On graph paper, T/C (the ratio of the volume of tumours of treated and control animals) was indicated by an arithmetic scale on the longitudinal axis and the administered amount of the test compound was indicated by a logarithmic scale on the lateral axis.
The relationship between the dose and T/C was shown by a straight line determined by the method of least squares, from which a dose corresponding to T/C of 0.5 was obtained.

The subject of data set [3] is Staphylococcus aureus ATCC 6538P. The data set is described as follows: Antibacterial activity, minimum growth inhibitory concentration by agar dilution method (SA). Particulars: ATCC6538P, pH 7, read-out: MIC, Staphylococcus aureus (SA). The data set is classed as cell-based. As for the experimental part: as §1
SA: Staphylococcus aureus ATCC 6538P

Data set [4] concerns Shigella sonnei ATCC 9290. In words: Antibacterial activity, minimum growth inhibitory concentration by agar dilution method (SS). Particulars: ATCC9290, pH 7, read-out: MIC, Shigella sonnei (SS). The data set is classed as cell-based. As for the experimental part: as §1
SS: Shigella sonnei ATCC 9290

The test system of data set [5] is Proteus vulgaris ATCC 6897. The data set is described as follows: Antibacterial activity, minimum growth inhibitory concentration by agar dilution method (PV). The data set is classed as cell-based. Particulars: ATCC6897, pH 7, read-out: MIC, Proteus vulgaris (PV). How it is done:
as §1
PV: Proteus vulgaris ATCC 6897

The test system of the next data set is peripheral leucocytes. In words: Effect on the peripheral leucocytes number in Sarcoma 180 bearing mice. The data set is classed as in vivo. The settings on record: Sarcoma 180 bearing ddy mice; intraperitoneal 24 hours after implantation; blood 4 days later. How it is done:
as §2
(4) Effect on the peripheral leucocytes number
Sarcoma 180 solid tumour cells (5×10^6) were subcutaneously implanted into the right arm pit of each mouse (body weight 20±2 g) of a group consisting of 5 male mice (ddy strain). 24 hours after implantation, a test compound was intraperitoneally administered to each animal. 4 days later, blood (each 0.02 ml) was collected from the suborbital plexus vein of each tumour-carrying animal. The collected sample of the blood was dispersed in 9.98 ml of Cell-Kit Seven solution. One drop of saponin solution was added to the sample to dissolve erythrocytes, and then a microcell counter was used to measure the number of leucocytes. On a graph paper, the number of leucocytes was indicated on the y-axis by an arithmetic scale and the dose of the test compound was indicated on the x-axis by a logarithmic scale. The relationship between the number of peripheral leucocytes and the dosage of the test compound was plotted and the dosage corresponding to 4000 peripheral leucocytes/mm^3 (about 1/2 the number of leucocytes of normal mice) was obtained. This value is denoted in Table 5 by WBC4000.

Data set [6] is described as follows: Acute toxicity in mice (LD50, Behrens Kerber's method). The settings on record: mouse, in vivo, ip; ddy mice, single intraperitoneal administration, 14 days observation. How it is done: as §2
Each animal of the test group consisting of 5 ddy mice was administered intraperitoneally once with a test compound. […] The LD50 was determined by Behrens Kerber's method.

Data set [7] deals with Streptococcus faecalis ATCC 10541. The data set is described as follows: Antibacterial activity, minimum growth inhibitory concentration by agar dilution method (SF). Particulars: Enterococcus faecalis, ATCC10541, pH 7, read-out: MIC, Streptococcus faecalis (SF). The data set is classed as cell-based. How it is done: as §1
SF: Streptococcus faecalis ATCC 10541

The nature of data set [8]: Stability of the product as observed on isolation. The data set is classed as physicochemical. The settings on record: in words; yield not constant. How it is done: To this solution is added dropwise 1 ml of methanol containing 23 mg of L-cysteine methyl ester hydrochloride and 50 μl of triethylamine. About 2 minutes later, the solvent is removed from the mixture by distillation under reduced pressure. Then, a similar treatment to that described in Example 1 is effected to obtain a small amount of Compound 16 as a grayish green powder. The yield of the resultant compound is not constant because of its unstability.
The yield is not constant because of unstability of the product.

In the case of `CO[C@@]12[C@H](COC(N)=O)C3=C(C(=O)C(C)=C(NCCSSc4ccc(NC(C)=O)cc4)C3=O)N1C[C@@H]1N[C@@H]12` [Compound 5, 7-N-[2-(4-Acetamidophenyldithio)ethyl]mitomycin C], the MIC is 0.005 µg/mL (≈ 0.00893 µM) with Bacillus subtilis 10707; 0.16 µg/mL (≈ 0.286 µM) in [1]; 0.02 µg/mL (≈ 0.0357 µM) in [3]; more than 40 µg/mL in [4]; 5 µg/mL (≈ 8.93 µM) in [5]; 0.04 µg/mL (≈ 0.0715 µM) in data set [7]. Besides, in [2], the solubility – broadly, the concentration that dissolves in the medium under given conditions – was 0.052 mg/mL (≈ 92.9 µM). In the data set on Sarcoma 180 solid tumour, the median effective dose (ED50) (as a rule, the midpoint of the dose-response relation) was 8.5 mg/kg. Moreover, the “WBC4000 (dosage corresponding to 4000 peripheral leucocytes/mm^3)” value (“WBC4000” below) in the data set with peripheral leucocytes worked out at 14.2 mg/kg. Moreover, in data set [6], the 50% lethal dose (LD50) (in general, the dose at which mortality reaches 50%) at 336 h stood at 30 mg/kg.
As for `CO[C@@]12[C@H](COC(N)=O)C3=C(C(=O)C(C)=C(NCCSSc4ccc(Cl)cc4)C3=O)N1C[C@@H]1N[C@@H]12` [Compound 11, 7-N-[2-(4-Chlorophenyldithio)ethyl]mitomycin C], the MIC is less than 0.01 µg/mL in the data set with Bacillus subtilis 10707; 0.63 µg/mL (≈ 1.17 µM) in [1]; less than 0.01 µg/mL in [3]; 10 µg/mL (≈ 18.6 µM) in data set [4]; 0.63 µg/mL (≈ 1.17 µM) in data set [5]; 0.04 µg/mL (≈ 0.0745 µM) in data set [7]. For the same compound, in the data set with Sarcoma 180 solid tumour, the ED50 turned out to be 4.5 mg/kg. The “WBC4000” value with peripheral leucocytes is reported as more than 10 mg/kg. Besides, the median lethal dose (LD50) at 336 h in data set [6] came out at 9 mg/kg.
With `CO[C@@]12[C@H](COC(N)=O)C3=C(C(=O)C(C)=C(NCCSSc4ccc(F)cc4)C3=O)N1C[C@@H]1N[C@@H]12` [Compound 12, 7-N-[2-(4-Fluorophenyldithio)ethyl]mitomycin C], the MIC in the data set with Bacillus subtilis 10707 was less than 0.02 µg/mL; in [1], 0.31 µg/mL (≈ 0.595 µM); in data set [3], less than 0.02 µg/mL; in data set [4], 20 µg/mL (≈ 38.4 µM); in data set [5] it was 0.63 µg/mL (≈ 1.21 µM); in [7], less than 0.02 µg/mL. In addition, in the data set on Sarcoma 180 solid tumour, the ED50 worked out at 3.5 mg/kg. Moreover, in the data set on peripheral leucocytes, the “WBC4000” value is on record as 10.4 mg/kg. In data set [6], this compound had an LD50 at 336 h of 6.8 mg/kg.
For the compound `CO[C@@]12[C@H](COC(N)=O)C3=C(C(=O)C(C)=C(NCCSSC[C@H](N)C(=O)O)C3=O)N1C[C@@H]1N[C@@H]12` [Compound 14, 7-N-[2-[(L-Cystein-S-yl)thio]ethyl]mitomycin C], the MIC was 0.16 µg/mL (≈ 0.312 µM) with Bacillus subtilis 10707; 0.63 µg/mL (≈ 1.23 µM) in [1]; 0.31 µg/mL (≈ 0.604 µM) in data set [3]; more than 20 µg/mL in [4]; 5 µg/mL (≈ 9.74 µM) in [5]; 0.31 µg/mL (≈ 0.604 µM) in data set [7]. Besides, the solubility in [2] was more than 100 mg/mL. For the same compound, in the data set with Sarcoma 180 solid tumour, the ED50 came to 15.4 mg/kg. Besides, the “WBC4000” value with peripheral leucocytes worked out at 26.9 mg/kg. In data set [6], this compound yielded an LD50 at 336 h of 30 mg/kg.
For `COC(=O)[C@@H](N)CSSCCNC1=C(C)C(=O)C2=C(C1=O)[C@@H](COC(N)=O)[C@@]1(OC)[C@H]3N[C@H]3CN21` [Compound 16, 7-N-[2-[(L-1-Methoxycarbonylcysteamin-S-yl)thio]ethyl]mitomycin C], the MIC in the data set with Bacillus subtilis 10707 is less than 0.02 µg/mL; in data set [1], 0.2 µg/mL (≈ 0.379 µM); in data set [3], 0.2 µg/mL (≈ 0.379 µM); in data set [4] it was 50 µg/mL (≈ 94.8 µM); in data set [5] it was 1.6 µg/mL (≈ 3.03 µM); in [7], 0.39 µg/mL (≈ 0.739 µM). Also, the “stability of the resultant compound” value in [8] was “unstability”.
In the case of `CCOC(=O)[C@@H](N)CSSCCNC1=C(C)C(=O)C2=C(C1=O)[C@@H](COC(N)=O)[C@@]1(OC)[C@H]3N[C@H]3CN21` [Compound 17], the MIC in the data set with Bacillus subtilis 10707 is less than 0.02 µg/mL; in data set [1], 0.2 µg/mL (≈ 0.369 µM); in data set [3] it was 0.2 µg/mL (≈ 0.369 µM); in data set [4], 25 µg/mL (≈ 46.2 µM); in [5] it was 1.6 µg/mL (≈ 2.95 µM); in data set [7] it was 0.2 µg/mL (≈ 0.369 µM). Besides, in data set [8], the “stability of the resultant compound” value is recorded as “unstability”.
As to `CO[C@@]12[C@H](COC(N)=O)C3=C(C(=O)C(C)=C(NCCSSC(C)(C)[C@H](N)C(=O)O)C3=O)N1C[C@@H]1N[C@@H]12` [Compound 18, 7-N-[2-[(L-Pencillamin-S-yl)thio]ethyl]mitomycin C], the MIC is 0.08 µg/mL (≈ 0.148 µM) in the data set on Bacillus subtilis 10707; 0.08 µg/mL (≈ 0.148 µM) in data set [1]; 0.31 µg/mL (≈ 0.572 µM) in [3]; more than 20 µg/mL in data set [4]; 0.31 µg/mL (≈ 0.572 µM) in data set [5]; 0.63 µg/mL (≈ 1.16 µM) in data set [7]. In the data set on Sarcoma 180 solid tumour, the median effective dose (ED50) came to 9.9 mg/kg. Also, in the data set with peripheral leucocytes, the “WBC4000” value was determined as 18.8 mg/kg. Further, the LD50 at 336 h in [6] amounted to 30 mg/kg.
As for `CO[C@@]12[C@H](COC(N)=O)C3=C(C(=O)C(C)=C(NCCSSC[C@H](N)C(=O)NCC(=O)O)C3=O)N1C[C@@H]1N[C@@H]12` [Compound 20, 7-N-[2-[(Glycino-L-cystein-S-71)thio]ethyl]mitomycin C], the MIC came out at 0.08 µg/mL (≈ 0.14 µM) with Bacillus subtilis 10707; 0.63 µg/mL (≈ 1.1 µM) in data set [1]; 0.31 µg/mL (≈ 0.543 µM) in data set [3]; 5 µg/mL (≈ 8.76 µM) in [5]; 0.63 µg/mL (≈ 1.1 µM) in [7]. In data set [2], this compound returned a solubility of more than 100 mg/mL. Further, the 50% effective dose (ED50) in the data set on Sarcoma 180 solid tumour was found to be 9.6 mg/kg. Further, in the data set with peripheral leucocytes, the “WBC4000” value is on record as 20.5 mg/kg. For the same compound, the LD50 at 336 h in data set [6] was 27 mg/kg.
